In ChEMBL document CHEMBL1131693, “Synthesis and methemoglobin toxicity of the amides of 6/7 mono or disubstituted quinolone” (1999) one finds Activity and Methemoglobin data, which are given here for twelve compounds.

The species named for one test is Canis lupus familiaris. Briefly: In vitro activity against canine methemoglobin reductase at 33 uM. More on the design: unit not given here.
Test [1] is filed under the species Canis familiaris. Briefly: In vitro activity on methemoglobin formation at 5 mM concentration in blood from a normal Beagle dog. It is filed as functional, Canis lupus familiaris.
The species named for test [2] is Canis familiaris. Briefly: In vitro activity on methemoglobin formation at 1 mM concentration in blood from a normal Beagle dog; Nil. It is filed as functional, Canis lupus familiaris.
The species named for test [3] is Canis familiaris. Briefly: In vitro activity on methemoglobin formation at 5 mM concentration in blood from a normal Beagle dog; Nil. The conditions noted are these: Canis lupus familiaris. The format is functional.
Test [4] is filed under the species Canis familiaris. Briefly: In vitro activity on methemoglobin formation at 1 mM concentration in blood from a normal Beagle dog. The format is functional, Canis lupus familiaris.

As for `CCCCCCCCNC(=O)c1cnc2cc(Cl)c(F)cc2c1O`, the Activity in the test listed under Canis lupus familiaris worked out at 0.064. The Methemoglobin in the test listed under Canis familiaris [1] is given as 29.3%; in the test filed under Canis familiaris [2], 1.7%.

As to `O=C(NC1CCCCC1)c1cnc2ccc([N+](=O)[O-])cc2c1O`, the Activity in the test listed under Canis lupus familiaris was 0.064. Besides, the values for the Methemoglobin in the test filed under Canis familiaris [1] and in the test filed under Canis familiaris [2] (Canis lupus familiaris) were 6.8% and “Nil”, respectively.

As for `CN1CCN(C(=O)c2cnc3cc(Cl)c(F)cc3c2O)CC1`, the Methemoglobin result in the test listed under Canis familiaris [3] and in the test filed under Canis familiaris [2] (Canis lupus familiaris) was “Nil” in each case. Further, in the test listed under Canis lupus familiaris, the Activity stood at 0.064.

In the case of `O=C(NC1CCCCC1)c1cnc2cc(Cl)c(F)cc2c1O`, the Methemoglobin entry in the test listed under Canis familiaris [3] and in the test listed under Canis familiaris [2] (Canis lupus familiaris) was “Nil” each time. Further, the Activity in the test filed under Canis lupus familiaris came to 0.064.

For `CCN(CC)CCCC(C)NC(=O)c1cnc2ccc([N+](=O)[O-])cc2c1O` (stereo unspecified), the Activity in the test listed under Canis lupus familiaris is 0.064. The values for the Methemoglobin in the test filed under Canis familiaris [1] and in the test listed under Canis familiaris [2] (Canis lupus familiaris) were 5.17% and “Nil”, respectively.

In turn, `CN1CCN(C(=O)c2cnc3ccc(F)cc3c2O)CC1` returned an Activity in the test filed under Canis lupus familiaris of 0.064. The Methemoglobin in the test listed under Canis familiaris [1] was 2%; in the test listed under Canis familiaris [2] (Canis lupus familiaris), “Nil”.

Compound `CCN(CC)CCCC(C)NC(=O)c1cnc2cc(Cl)c(F)cc2c1O` (stereo unspecified) returned an Activity in the test filed under Canis lupus familiaris of 0.064. Besides, the results for the Methemoglobin in the test listed under Canis familiaris [1] and in the test filed under Canis familiaris [2] (Canis lupus familiaris) were 16.9% and “Nil”, respectively.

For the compound `CCN(CC)CCCC(C)NC(=O)c1cnc2ccc(F)cc2c1O` (stereo unspecified), the Methemoglobin in the test filed under Canis familiaris [4] was found to be 1.7%; in the test listed under Canis familiaris [1], 22.4%. In the test filed under Canis lupus familiaris, the Activity turned out to be 0.064.

With `CCCCCCCCNC(=O)c1cnc2ccc([N+](=O)[O-])cc2c1O`, the Activity in the test listed under Canis lupus familiaris came out at 0.064. The Methemoglobin in the test filed under Canis familiaris [1] is listed as 7.7%; in the test filed under Canis familiaris [2] (Canis lupus familiaris), “Nil”.

In the test filed under Canis lupus familiaris, `O=C(NC1CCCCC1)c1cnc2ccc(F)cc2c1O` returned an Activity of 0.064. In addition, the Methemoglobin is 1.5% in the test filed under Canis familiaris [1] and “Nil” in the test filed under Canis familiaris [2] (Canis lupus familiaris).

On to `CCCCCCCCNC(=O)c1cnc2ccc(F)cc2c1O`, for which the Activity in the test listed under Canis lupus familiaris is 0.064. Further, the figures for the Methemoglobin in the test filed under Canis familiaris [1] and in the test listed under Canis familiaris [2] (Canis lupus familiaris) were 18.9% and “Nil”, respectively.

In turn, `CN1CCN(C(=O)c2cnc3ccc([N+](=O)[O-])cc3c2O)CC1` gave an Activity in the test listed under Canis lupus familiaris of 0.064. The Methemoglobin is given as 8.6% in the test listed under Canis familiaris [1] and “Nil” in the test filed under Canis familiaris [2] (Canis lupus familiaris).
